Laboratory results from patent US11000033B2, “Ketone or oxime compound, and herbicide” (NISSAN CHEMICAL CORPORATION, priority 2014, dated 2021).

Columns and labels:
Type in all cases: in vivo
Abutilon theophrasti [1] = experiment: Test Example 4: herbicidal effect by soil treatment (symbol M); conditions: application herbicide amount 320 g/ha
Summary of the method: (§1)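 Seeds were sown in sterilized diluvial soil, covered with about 1.5 cm of soil, and the soil surface was sprayed with a water-diluted emulsion of the compound at a predetermined rate. Plants grew in a greenhouse at 25° C. to 30° C.; effects were scored visually 3 weeks after application.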

Lolium multiflorum Lam. = experiment: Test Example 5: herbicidal effect by foliage application, plastic box (symbol K); conditions: 320 g/ha, 3 weeks after application
Summary of the method: (§2)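 Visual herbicidal score, taken three weeks post-application, of seedlings sprayed on the foliage with water-diluted emulsion at a predetermined amount; plants were 14 days old, greenhouse-raised at 25° C. to 30° C.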

wheat = experiment: Test Example 5: effect on crop by foliage application, plastic box (symbol e); conditions: 320 g/ha, 3 weeks after application
Summary of the method: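 Greenhouse test at 25° C. to 30° C. Seeds of crops and weeds were spot-sown in boxes of sterilized diluvial soil under roughly 1.5 cm soil cover, then grown for foliage treatment.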

Stellaria media = experiment: Test Example 4: herbicidal effect by soil treatment (symbol P); conditions: application herbicide amount 320 g/ha
Summary of the method: as §1

Avena fatua [2] = experiment: Test Example 5: herbicidal effect by foliage application, plastic box (symbol I); conditions: 320 g/ha, 3 weeks after application
Summary of the method: as §2

Digitaria ciliaris = experiment: Test Example 4: herbicidal effect by soil treatment (symbol F); conditions: application herbicide amount 320 g/ha
Summary of the method: as §1

Avena fatua [3] = experiment: Test Example 4: herbicidal effect by soil treatment (symbol I); conditions: application herbicide amount 320 g/ha
Summary of the method: as §1

Abutilon theophrasti [4] = experiment: Test Example 5: herbicidal effect by foliage application, plastic box (symbol M); conditions: 320 g/ha, 3 weeks after application
Summary of the method: as §2

corn = experiment: Test Example 4: effect on crop by soil treatment (symbol c); conditions: application herbicide amount 320 g/ha
Summary of the method: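 Greenhouse culture at 25° C. to 30° C. followed sowing of seed in spots on sterilized diluvial soil with a soil cover close to 1.5 cm thick.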

Scirpus juncoides = experiment: Test Example 2: herbicidal activity, application during weed generation in submerged conditions (symbol B); conditions: Table 23; application herbicide amount 320 g/ha; grade 0-5 by criteria of Test Example 1
Summary of the method: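 Scoring of herbicidal effect took place 3 weeks after treatment, using the criteria of the earlier test. Treatment was water-surface application of diluted emulsifiable compound at a set dose. Plants were at one- to two-leaf stage in submerged alluvial soil (4 cm depth), greenhouse 25-30° C.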

beet = experiment: Test Example 4: effect on crop by soil treatment (symbol f); conditions: application herbicide amount 320 g/ha
Summary of the method: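 Crop seeds, among them rice, wheat, beet and rapeseed, were sown in sterilized diluvial soil and covered with about 1.5 cm of soil. Boxes were kept in a greenhouse at 25° C. to 30° C. for plant growth.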

Leptochloa chinensis = experiment: Test Example 3: herbicidal effect by foliage application, Wagner pot (symbol D); conditions: application herbicide amount 320 g/ha; for D (Leptochloa chinensis) herbicidal effect grade: Table 24
Summary of the method: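 Foliar spray of a water-diluted emulsion at a predetermined herbicide amount, applied to 14-day-old plants. Seedlings were raised in flooded alluvial soil (0.1–0.5 cm water) at 25–30 °C in a greenhouse. Injury was rated after 3 weeks against fixed criteria.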

[5] = tested on: directly sowed rice plant; experiment: Test Example 3: effect on crop by foliage application, Wagner pot (symbol b); conditions: application herbicide amount 320 g/ha; for b (directly sowed rice plant) effect on crop grade: Table 24
Summary of the method: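 Wagner pot (1/10000 are), alluvial soil, submerged 0.1–0.5 cm; sown E. crus-galli var. crus-galli, L. chinensis, C. difformis, rice; greenhouse 25–30 °C.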

Compound | M (Abutilon theophrasti) herbicidal effect grade (Abutilon theophrasti [1]) | K: Lolium multiflorum Lam., herbicidal effect grade (Lolium multiflorum Lam.) | e: wheat, effect on crop grade (wheat) | P (Stellaria media) herbicidal effect grade (Stellaria media) | I: Avena fatua, herbicidal effect grade (Avena fatua [2]) | F (Digitaria ciliaris) herbicidal effect grade (Digitaria ciliaris) | I (Avena fatua) herbicidal effect grade (Avena fatua [3]) | M: Abutilon theophrasti, herbicidal effect grade (Abutilon theophrasti [4]) | c (corn) effect on crop grade (corn) | Herbicidal effect grade, B: Scirpus juncoides (Scirpus juncoides) | f (beet) effect on crop grade (beet) | herbicidal effect on D (Leptochloa chinensis), grade 0-5 (Leptochloa chinensis) | effect on crop b (directly sowed rice plant), grade 0-5 [5] | Herbicidal effect grade, M: Abutilon theophrasti (Abutilon theophrasti [1]) | Herbicidal effect grade, P: Stellaria media (Stellaria media) | Herbicidal effect grade, F: Digitaria ciliaris (Digitaria ciliaris) | Herbicidal effect grade, I: Avena fatua (Avena fatua [3]) | Effect on crop grade, c: corn (corn) | Effect on crop grade, f: beet (beet) | D (Leptochloa chinensis) herbicidal effect grade (Leptochloa chinensis) | other results
CCON=C(C)CC1CC(O)=C(c2c(C)cc(C)cc2C)C1=O (stereo not shown) [1-003] | 4 (Herbicidal ratio of 70% or higher and lower than 90%) | 5 (Herbicidal ratio of 90% or more (almost completely withered)) | 5 (Herbicidal ratio of 90% or more (almost completely withered)) | 3 (Herbicidal ratio of 40% or higher and lower than 70%) | 5 (Herbicidal ratio of 90% or more (almost completely withered)) | 5 (Herbicidal ratio of 90% or more (almost completely withered)) | 4 (Herbicidal ratio of 70% or higher and lower than 90%) | 4 (Herbicidal ratio of 70% or higher and lower than 90%) | 5 (Herbicidal ratio of 90% or more (almost completely withered)) | 3 (Herbicidal ratio of 40% or higher and lower than 70%) | 2 (Herbicidal ratio of 20% or higher and lower than 40%) | 5 (Herbicidal ratio of 90% or more (almost completely withered)) | 5 (Herbicidal ratio of 90% or more (almost completely withered)) | – | – | – | – | – | – | – | –
COCCOC1=C(c2c(C)cc(C)cc2C)C(=O)C(CC(C)=NOC)C1 (stereo not shown) [1-037] | 0 (Herbicidal ratio of 5% or lower (almost no effect)) | 0 (Herbicidal ratio of 5% or lower (almost no effect)) | 0 (Herbicidal ratio of 5% or lower (almost no effect)) | 0 (Herbicidal ratio of 5% or lower (almost no effect)) | 0 (Herbicidal ratio of 5% or lower (almost no effect)) | 0 (Herbicidal ratio of 5% or lower (almost no effect)) | 0 (Herbicidal ratio of 5% or lower (almost no effect)) | 0 (Herbicidal ratio of 5% or lower (almost no effect)) | 0 (Herbicidal ratio of 5% or lower (almost no effect)) | 0 (Herbicidal ratio of 5% or lower (almost no effect)) | 0 (Herbicidal ratio of 5% or lower (almost no effect)) | 0 (Herbicidal ratio of 5% or lower (almost no effect)) | 0 (Herbicidal ratio of 5% or lower (almost no effect)) | – | – | – | – | – | – | – | –
CON=C(CC1CC(O)=C(c2c(C)cc(-n3cc(Cl)cn3)cc2C)C1=O)C(C)C (stereo not shown) [9-004] | – | 5 (Herbicidal ratio of 90% or more (almost completely withered)) | 3 (Herbicidal ratio of 40% or higher and lower than 70%) | – | 5 (Herbicidal ratio of 90% or more (almost completely withered)) | – | – | 0 (Herbicidal ratio of 5% or lower (almost no effect)) | – | 2 (Herbicidal ratio of 20% or higher and lower than 40%) | – | – | – | 0 (Herbicidal ratio of 5% or lower (almost no effect)) | 0 (Herbicidal ratio of 5% or lower (almost no effect)) | 5 (Herbicidal ratio of 90% or more (almost completely withered)) | 2 (Herbicidal ratio of 20% or higher and lower than 40%) | 0 (Herbicidal ratio of 5% or lower (almost no effect)) | 0 (Herbicidal ratio of 5% or lower (almost no effect)) | 5 (Herbicidal ratio of 90% or more (almost completely withered)) | b (directly sowed rice plant) effect on crop grade [5]: 5 (Herbicidal ratio of 90% or more (almost completely withered))
CC#Cc1cc(C)c(C2=C(OC(=O)COc3ccccc3)CC(CC(=NOC)C(C)C)C2=O)c(C)c1 (stereo not shown) [9-003] | – | 5 (Herbicidal ratio of 90% or more (almost completely withered)) | 4 (Herbicidal ratio of 70% or higher and lower than 90%) | – | 4 (Herbicidal ratio of 70% or higher and lower than 90%) | – | – | 4 (Herbicidal ratio of 70% or higher and lower than 90%) | – | 4 (Herbicidal ratio of 70% or higher and lower than 90%) | – | – | – | 0 (Herbicidal ratio of 5% or lower (almost no effect)) | 0 (Herbicidal ratio of 5% or lower (almost no effect)) | 5 (Herbicidal ratio of 90% or more (almost completely withered)) | 3 (Herbicidal ratio of 40% or higher and lower than 70%) | 5 (Herbicidal ratio of 90% or more (almost completely withered)) | 0 (Herbicidal ratio of 5% or lower (almost no effect)) | 5 (Herbicidal ratio of 90% or more (almost completely withered)) | b (directly sowed rice plant) effect on crop grade [5]: 5 (Herbicidal ratio of 90% or more (almost completely withered))
CC(=O)CC1CC(O)=C(c2c(C)cc(-c3ncccn3)cc2C)C1=O (stereo not shown) [7-017] | – | – | – | – | – | – | – | – | – | – | – | 5 (Herbicidal ratio of 90% or more (almost completely withered)) | 5 (Herbicidal ratio of 90% or more (almost completely withered)) | 0 (Herbicidal ratio of 5% or lower (almost no effect)) | 0 (Herbicidal ratio of 5% or lower (almost no effect)) | 4 (Herbicidal ratio of 70% or higher and lower than 90%) | 0 (Herbicidal ratio of 5% or lower (almost no effect)) | 0 (Herbicidal ratio of 5% or lower (almost no effect)) | 0 (Herbicidal ratio of 5% or lower (almost no effect)) | – | K: Lolium multiflorum Lam., herbicidal effect (criteria of Test Example 1) (Lolium multiflorum Lam.): 3 (Herbicidal ratio of 40% or higher and lower than 70%); e: wheat, effect on crop (criteria of Test Example 1) (wheat): 0 (Herbicidal ratio of 5% or lower (almost no effect)); I: Avena fatua, herbicidal effect (criteria of Test Example 1) (Avena fatua [2]): 0 (Herbicidal ratio of 5% or lower (almost no effect)); M: Abutilon theophrasti, herbicidal effect (criteria of Test Example 1) (Abutilon theophrasti [4]): 0 (Herbicidal ratio of 5% or lower (almost no effect))
CC(=O)CC1CC(O)=C(c2c(C)cc(Oc3ccccc3)cc2C)C1=O (stereo not shown) [7-014] | – | – | – | – | – | – | – | – | – | – | – | 5 (Herbicidal ratio of 90% or more (almost completely withered)) | 5 (Herbicidal ratio of 90% or more (almost completely withered)) | 0 (Herbicidal ratio of 5% or lower (almost no effect)) | 0 (Herbicidal ratio of 5% or lower (almost no effect)) | 3 (Herbicidal ratio of 40% or higher and lower than 70%) | 0 (Herbicidal ratio of 5% or lower (almost no effect)) | 0 (Herbicidal ratio of 5% or lower (almost no effect)) | 0 (Herbicidal ratio of 5% or lower (almost no effect)) | – | K: Lolium multiflorum Lam., herbicidal effect (criteria of Test Example 1) (Lolium multiflorum Lam.): 5 (Herbicidal ratio of 90% or more (almost completely withered)); e: wheat, effect on crop (criteria of Test Example 1) (wheat): 0 (Herbicidal ratio of 5% or lower (almost no effect)); I: Avena fatua, herbicidal effect (criteria of Test Example 1) (Avena fatua [2]): 1 (Herbicidal ratio of 5% or higher and lower than 20%); M: Abutilon theophrasti, herbicidal effect (criteria of Test Example 1) (Abutilon theophrasti [4]): 0 (Herbicidal ratio of 5% or lower (almost no effect))
